pIC50: −log10 of the molar value. Like-named read-outs stand apart in the source and are kept apart here.
Tests used:
V30M-TTR = target: T1, V30M-TTR (Homo sapiens, UniProt P02766, V50M); assay: Acid-mediated V30M-TTR fibril formation assay (turbidity at 400 nm); type: biochemical; conditions: pH 4.4, 72 hours, 37° C.; for % Fibril Formation 7.2 μM (V30M-TTR): compound 7.2 μM; for % Fibril Formation […] (V30M-TTR): compound […]
T1 construct: composed of 127-residue β-sheet-rich subunits; made in house
Protocol: Compounds (5 μL of 1.44 mM solution in DMSO) were added to 495 μL of TTR (7.2 μM, in 10 mM sodium phosphate, 100 mM KCl, 1 mM EDTA, pH 7.0). The mixtures were vortexed and incubated (maintained) for 18 hours at 25° C. […] The solutions were vortexed to evenly distribute any precipitate, and turbidity was measured at 400 nm using a Hewlett Packard model 8453 UV-VIS Spectrophotometer.

[1] = target: T2, TTR in human blood plasma (Homo sapiens, UniProt P02766); assay: Modification of TTR in human blood plasma (immunocapture, RP-HPLC); type: binding; conditions: compound 10.8 μM, 24 hours, 37° C.; maximum 50%
T2 construct: RP-HPLC analysis of TTR captured from human plasma; from tissue; host or cells: human blood plasma
Protocol: Compounds 1-4 (10.8 μM) were incubated for 24 hours at 37° C. with human plasma, wherein the TTR concentration is 3.6-5.4 μM.
Furthermore, compound A2 was evaluated to determine its ability to bind selectively to and then react chemoselectively with TTR over the 4000+ other proteins in human blood plasma. Compound A2 (10.8 μM) was incubated with human blood plasma (TTR concentration is 3.6-5.4 μM) for 24 hours at 37° C. before immunoisolating human TTR using a Sepharose® resin-conjugated anti-TTR polyclonal antibody [Purkey et al., Proc. Natl. Acad. Sci. U.S.A. 2001, 98, 5566-5571].
The modification ratio of TTR by kinetic stabilizers in human plasma was evaluated as described [Purkey et al., Proc. Natl. Acad. Sci. U.S.A. 98:5566-5571 (2001)] with minor modifications. Briefly, compounds (7.5 μL of 1.44 mM solution in DMSO) were added to 1 mL of human plasma and incubated at 37° C. for 24 hours on a rocker (30 rpm). A 1:1 (v/v) slurry of unfunctionalized Sepharose® resin in 10 mM Tris, 140 mM NaCl, pH 8.0 (TSA) was added and the solutions were incubated for 1 hour at 4° C. on a rocker plate, followed by brief centrifugation.
Two 400 μL aliquots of the supernatants were added to 300 μL of 1:1 (v:v) slurry of anti-TTR antibody-conjugated Sepharose® resin in TSA. The solutions were gently rocked at 4° C. for 20 minutes (30 rpm), centrifuged, and supernatants were removed. The resin was washed by shaking for 1 minute in 1 mL of TSA solution containing 0.05% saponin (three times) and then 1 mL of TSA solution (twice). The TTR and bound test compound were dissociated from the resin by adding 155 μL of triethylamine (100 mM, pH 11.5) and vortexing for 1 minute. After centrifugation, 135 μL of solution containing test compound and TTR was analyzed by RP-HPLC as described above except that the linear gradients were run from 100:0 to 0:100 A:B for 45 minutes.

WT-TTR [2] = target: T3, WT-TTR (Homo sapiens, UniProt P02766); assay: Acid-mediated WT-TTR fibril formation assay (turbidity at 400 nm); type: biochemical; conditions: for pIC50: % fibril formation after 72 hours, read-out: IC50 (apparent), inhibition of WT-TTR amyloidogenesis; for % Fibril Formation 7.2 μM (WT-TTR): compound 7.2 μM; for % Fibril Formation 7.2 μM (WT-TTR) / % Fibril Formation […] (WT-TTR): pH 4.4, 72 hours, 37° C.; for % Fibril Formation […] (WT-TTR): compound […]
T3 construct: composed of 127-residue β-sheet-rich subunits; made in house; host or cells: E. coli
Protocol: The mixtures were vortexed and incubated (maintained) for 18 hours at 25° C.

K15A-TTR [3] = target: T4, K15A-TTR (Homo sapiens, UniProt P02766, K35A); assay: RP-HPLC analysis of reaction with K15A-TTR homotetramer; type: binding
T4 construct: composed of 127-residue β-sheet-rich subunits; made in house
Excerpt: A strictly analogous study performed with the K15A homotetrameric TTR mutant confirmed that K15 was essential for the observed chemoselective reaction between TTR and Compounds […] (FIG. 1A, bottom trace). […] However, it is important to note that Compounds 1-3 were only slightly less chemoselective (<5% reaction with K15A).
The ability of compounds A1 and A2, auxochromic analogs of previously discussed stilbenes [Klabunde et al., Nat. Struct. Biol. 2000, 7, 312-321; Connelly et al., Curr. Opin. Struc. Biol. 2010, 20, 54-62; Johnson et al., J. Med. Chem. 2008, 51, 6348-6358; Choi et al., J. Am. Chem. Soc. 2010, 132, 1359-1370; Choi et al., Nat. Chem. Biol. 2010, 6, 133-139; and Baures et al., Bioorg. Med. Chem. 1998, 6, 1389-1401] to form a chemoselective amide bond with the K15 residue of TTR was assessed by reverse-phase-HPLC and liquid chromatography-mass spectrometry analysis. […] The binding of the covalent modifier A2 to K15A-TTR (in the absence of amide bond conjugation) was confirmed by incubating A2 with K15A-TTR in phosphate buffer (pH 7) followed by K15A immunoisolation using a Sepharose® resin-conjugated anti-TTR polyclonal antibody [Purkey et al., Proc. Natl. Acad. Sci. U.S.A. 2001, 98, 5566-5571].
Recombinant WT-TTR was expressed as described previously [Lashuel et al., Biochemistry 38:13560-13573 (1999)]. For analysis of test compounds with TTR, each compound (1.5 μL in DMSO, 1.44 mM) was added to 300 μL of WT-TTR or K15A mutant TTR (3.6 μM, 10 mM sodium phosphate, 100 mM KCl, 1 mM EDTA, pH 7.0). The samples were vortexed, and incubated for 18 hours at 25° C. Reverse phase high performance liquid chromatography (RP-HPLC) was performed on a Water 600 E multi-solvent delivery system, using a Waters 486 tunable absorbance detector, a 717 autosampler, and a ThermoHypersil Keystone Betabasic-18 column μ150 Å pore size, 3 μm particle size, and mobile phase A; 0.1% TFA in 95% H2O+5% CH3CN and mobile phase B, 0.1% TFA in 95% CH3CN+5% H2O). Linear gradients were run from 100:0 to 0:100 A:B for 27 minutes.

WT-TTR [4] = target: T3, WT-TTR; assay: Fluorimetric assay with recombinant WT-TTR; type: binding
Protocol: WT-TTR was expressed in an E. coli expression system and purified as described previously. […] The samples were vortexed, and incubated for 18 h at 25° C. […] The excitation slit was set at 5 nm and the emission slit was set at […]. The samples were excited at 328 nm and the emission spectra were collected from 350 to 550 nm. WT-TTR was expressed and purified from an E. coli expression system as described previously. [Lashuel et al., Biochemistry 1999, 38:13560]. […] The samples were vortexed, and incubated for 18 hours at 25° C. […] The excitation slits was set at 5 nm and the emission slits was set at […]. The samples were excited at 328 nm and the emission spectra were collected from 330 to 550 nm (FIG. 4). The time-dependent fluorescence changes were monitored in similar manner (FIG. 5).

K15A-TTR [5] = target: T4, K15A-TTR; assay: Fluorimetric assay with recombinant K15A-TTR; type: binding; conditions: 24 hour incubation
Protocol: [The source words this procedure for another variant and says it was used here with some conditions changed.] The excitation spectra are shown with dotted traces (λmax=328 nm), and emission spectra are adjacently (λmax=384 nm). Very low fluorescence resulted from 328 nm excitation of stilbene Compounds 4 or 2 alone in buffer (FIGS. 4A and 4B; traces substantially on the X-axis).
WT-TTR was expressed in an E. coli expression system and purified as described previously. [Lashuel et al., Biochemistry 1999, 38, 13560-13573] The covalent TTR modifiers (A1 or A2) or the non-covalent TTR ligand B2 (5 μL of a 1.44 mM solution in DMSO, final concentration: 7.2 μM) were added to 1 mL of a solution of WT-TTR homotetramer (0.2 mg/mL, 3.6 μM) in 10 mM phosphate, 100 mM KCl and 1 mM EDTA (pH 7.0 phosphate buffer) in a 2 mL Eppendorf tube. The samples were vortexed, and incubated for 18 h at 25° C. The fluorescence changes were monitored using a Varian Cary 50 spectrofluorometer at 20° C. in a 1 cm path length quartz cell. The excitation slit was set at 5 nm and the emission slit was set at […]. The samples were excited at 328 nm and the emission spectra were collected from 350 to 550 nm.
WT-TTR was expressed and purified from an E. coli expression system as described previously. [Lashuel et al., Biochemistry 1999, 38:13560]. The covalent modifiers (Compounds 4 or 2) or the non-covalent TTR ligand Compound B2 (5 μL of a 1.44 mM solution in DMSO) were added to 1 mL of a solution of WT-TTR (0.2 mg/mL, 3.6 μM) in 10 mM phosphate, 100 mM KCl and 1 mM EDTA (pH 7.0) in a 2 mL Eppendorf tube. The samples were vortexed, and incubated for 18 hours at 25° C. The fluorescence changes were monitored using a Varian Cary 50 spectrofluorometer at 20° C. in a 1 cm path length quartz cell. The excitation slits was set at 5 nm and the emission slits was set at […]. The samples were excited at 328 nm and the emission spectra were collected from 330 to 550 nm (FIG. 4). The time-dependent fluorescence changes were monitored in similar manner (FIG. 5).

Row | SMILES | % Fibril Formation 7.2 μM (V30M-TTR) (V30M-TTR) [%] | % Fibril Formation […] (V30M-TTR) (V30M-TTR) [%] | % Modification of TTR subunits in Human Blood Plasma [1] | pIC50 (WT-TTR [2]; WT-TTR 3.6 μM) | % Fibril Formation 7.2 μM (WT-TTR) (WT-TTR [2]; WT-TTR […]) [%] | % Fibril Formation […] (WT-TTR) (WT-TTR [2]; WT-TTR […]) [%] | reaction with K15A-TTR (in words) (K15A-TTR [3]) | further results
1 | O=C(Sc1ccccc1)c1cccc(/C=C/c2cc(Br)c(O)c(Br)c2)c1 [Compound 1, (E)-S-phenyl 3-(3,5-dibromo-4-hydroxystyryl)benzothioate] | 3 | 17 | 36% (±0.4%) | 5.65 to 5.71 | 2 | 12 | – | pIC50 (WT-TTR [2]; WT-TTR […]): 5.70
2 | Cc1cc(/C=C/c2cccc(C(=O)Oc3ccccc3[N+](=O)[O-])c2)cc(C)c1O [Compound 3, (E)-2-nitrophenyl 3-(4-hydroxy-3,5-dimethylstyryl)benzoate] | 3 | 33 | 49% (±0.7%) | 5.65 to 5.71 | 4 | 21 | – | –
3 | Cc1cc(/C=C/c2ccc(C(=O)Oc3ccccc3[N+](=O)[O-])cc2)cc(C)c1O [Compound 6] | – | – | – | – | – | – | more non-chemoselective conjugation | –
4 | Cc1cc(/C=C/c2cc(C(=O)Oc3ccc(F)cc3)cc(N(C)C)c2)cc(C)c1O [Compound A1, (E)-4-fluorophenyl 3-(dimethylamino)-5-(4-hydroxy-3,5-dimethylstyryl)benzoate] | – | – | – | – | – | – | no conjugation | fluorescence after incubation with WT-TTR (in words) (WT-TTR [4]; phosphate buffer pH 7, 18 hours): bright blue fluorescence
5 | CCCNC(=O)c1cccc(/C=C/c2cc(C)c(O)c(C)c2)c1 [Compound B1, (E)-3-(4-hydroxy-3,5-dimethylstyryl)-N-propylbenzamide] | – | – | – | – | – | – | – | increase in fluorescence intensity upon binding to K15A-TTR (K15A-TTR [5]): about 190 fold; time for binding to WT-TTR (WT-TTR [4]): ≤ 1 min; increase in fluorescence intensity with WT-TTR vs compound alone in buffer (WT-TTR [4]; WT-TTR […], compound 7.2 μM, 24 hours): about 400 fold; increase in fluorescence intensity with WT-TTR within 1 minute vs compound alone in buffer (WT-TTR [4]; time-dependent emission spectra): about 360 fold

— US8703815B2, “Small molecules that covalently modify transthyretin” (The Scripps Research Institute, priority 2009, dated 2014)
